IC50 and inhibition data for 30 molecules are collected here from patent publication US8575156B2, “Cyclic inhibitors of 11β-hydroxysteroid dehydrogenase 1” (Vitae Pharmaceuticals, Inc., priority 2007, dated 2013).

Where only a bound is given, the exact number is not on record here.

This test concerns the target 11β-HSD1 (Homo sapiens, UniProt P28845). The experiment in a line: biochemical. The following applies: for IC50: IC50 Range, Biological Test Example 1, microsomes from CHO cells overexpressing human 11β-HSD1; for inhibition at 0.1 µM: read-out: Average % inhibition at 100 nM, Biological Test Example 1, 100 nM.

11β-HSD1, sequence (P28845 whole entry): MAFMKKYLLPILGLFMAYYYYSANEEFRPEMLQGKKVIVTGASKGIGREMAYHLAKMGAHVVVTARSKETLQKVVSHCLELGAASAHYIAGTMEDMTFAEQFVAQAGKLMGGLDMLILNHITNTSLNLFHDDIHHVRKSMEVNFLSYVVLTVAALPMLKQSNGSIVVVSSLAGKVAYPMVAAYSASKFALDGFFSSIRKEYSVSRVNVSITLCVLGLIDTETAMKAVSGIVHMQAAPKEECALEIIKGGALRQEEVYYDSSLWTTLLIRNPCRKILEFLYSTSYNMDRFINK

With `C=CC[C@]1(c2ccc(F)cc2)CCN([C@@H](C)c2cccc(C(C)(C)O)c2)C(=O)O1` [EXAMPLE 364, (R)-6-allyl-6-(4-fluorophenyl)-3-((S)-1-(3-(2-hydroxypropan-2-yl)phenyl)ethyl)-1,3-oxazinan-2-one], the IC50 (commonly the concentration that gives 50% inhibition) was less than 100 nM and the inhibition (in general, the relative decrease from the control value, in per cent) at 0.1 µM was 66.3%.

Consider `C[C@@H](c1ccc(Br)cc1)N1CC[C@](CCCO)(c2ccc(F)cc2F)OC1=O` [EXAMPLE 366, (R)-3-((S)-1-(4-bromophenyl)ethyl)-6-(2,4-difluorophenyl)-6-(3-hydroxypropyl)-1,3-oxazinan-2-one], for which the IC50 was less than 100 nM and the inhibition at 0.1 µM is 95.1%.

Turning to `Cc1ccc([C@H](C)N2CC[C@](CCCO)(c3ccc(F)cc3)OC2=O)cn1` [EXAMPLE 367, (R)-6-(4-fluorophenyl)-6-(3-hydroxypropyl)-3-((S)-1-(6-methylpyridin-3-yl)ethyl)-1,3-oxazinan-2-one], the concentration for half-maximal inhibition (IC50) was less than 100 nM and the inhibition at 0.1 µM is 44.8%.

With `CC[C@@H](c1ccc(Br)cc1)N1CC[C@](CCC(N)=O)(c2ccc(F)cc2)OC1=O` [EXAMPLE 368, 3-((R)-3-((S)-1-(4-bromophenyl)propyl)-6-(4-fluorophenyl)-2-oxo-1,3-oxazinan-6-yl)propanamide], the IC50 was less than 100 nM and the inhibition at 0.1 µM was 96.9%.

`C[C@@H](c1ccc(Br)cc1)N1CC[C@](CCC(C)(C)O)(c2ccc(F)cc2)OC1=O` [EXAMPLE 373, (R)-3-((S)-1-(4-bromophenyl)ethyl)-6-(4-fluorophenyl)-6-(3-hydroxy-3-methylbutyl)-1,3-oxazinan-2-one]: the IC50 was less than 100 nM and the inhibition at 0.1 µM is 89.1%.

Consider `C[C@@H](c1ccc(Br)cc1)N1CC[C@](CCN2CCC2)(c2ccc(F)cc2)OC1=O` [EXAMPLE 374, (R)-6-(2-(azetidin-1-yl)ethyl)-3-((S)-1-(4-bromophenyl)ethyl)-6-(4-fluorophenyl)-1,3-oxazinan-2-one], for which the IC50 was less than 100 nM and the inhibition at 0.1 µM came out at 52.2%.

`C[C@@H](c1ccc(Br)cc1)N1CC[C@](CCNCCF)(c2ccc(F)cc2)OC1=O` [EXAMPLE 375, (R)-3-((S)-1-(4-bromophenyl)ethyl)-6-(2-(2-fluoroethylamino)ethyl)-6-(4-fluorophenyl)-1,3-oxazinan-2-one]: the IC50 is less than 100 nM and the inhibition at 0.1 µM is 70.9%.

Regarding `C[C@@H](c1ccc(Br)cc1)N1CC[C@](CCN2CCCC2)(c2ccc(F)cc2)OC1=O` [EXAMPLE 376, (R)-3-((S)-1-(4-bromophenyl)ethyl)-6-(4-fluorophenyl)-6-(2-(pyrrolidin-1-yl)ethyl)-1,3-oxazinan-2-one], the IC50 is less than 100 nM and the inhibition at 0.1 µM amounted to 50.3%.

As to `C[C@@H](c1ccc(Br)cc1)N1CC[C@](CCN2CC[C@H](F)C2)(c2ccc(F)cc2)OC1=O` [EXAMPLE 377, (R)-3-((S)-1-(4-bromophenyl)ethyl)-6-(4-fluorophenyl)-6-(2-((S)-3-fluoropyrrolidin-1-yl)ethyl)-1,3-oxazinan-2-one], the IC50 was less than 100 nM and the inhibition at 0.1 µM was 72%.

As to `C[C@@H](c1ccc(Br)cc1)N1CC[C@](CCN2CC[C@@H](F)C2)(c2ccc(F)cc2)OC1=O` [EXAMPLE 378, (R)-3-((S)-1-(4-bromophenyl)ethyl)-6-(4-fluorophenyl)-6-(2-((R)-3-fluoropyrrolidin-1-yl)ethyl)-1,3-oxazinan-2-one], the half-inhibitory concentration (IC50) was less than 100 nM and the inhibition at 0.1 µM was 70%.

`C[C@@H](c1ccc(Br)cc1)N1CC[C@](CCN2CCNC(=O)C2)(c2ccc(F)cc2)OC1=O` [EXAMPLE 379, (R)-3-((S)-1-(4-bromophenyl)ethyl)-6-(4-fluorophenyl)-6-(2-(3-oxopiperazin-1-yl)ethyl)-1,3-oxazinan-2-one]: the IC50 is less than 100 nM and the inhibition at 0.1 µM came to 57.7%.

For `C[C@@H](c1ccc(Cl)cc1)N1CC[C@](CCO)(c2ccc(F)cc2)OC1=O` [EXAMPLE 380, (S)-3-((S)-1-(4-chlorophenyl)ethyl)-6-(4-fluorophenyl)-6-(2-hydroxyethyl)-1,3-oxazinan-2-one], the IC50 is less than 100 nM and the inhibition at 0.1 µM was 97.2%.

For `C[C@@H](c1ccc(Cl)cc1)N1CC[C@](CC(C)(C)O)(c2ccc(F)cc2)OC1=O` [EXAMPLE 381, (S)-3-((S)-1-(4-chlorophenyl)ethyl)-6-(4-fluorophenyl)-6-(2-hydroxy-2-methylpropyl)-1,3-oxazinan-2-one], the IC50 is less than 100 nM and the inhibition at 0.1 µM amounted to 97.2%.

In the case of `C[C@@H](c1ccc(Cl)cc1)N1CC[C@](CCC(C)(C)O)(c2ccc(F)cc2)OC1=O` [EXAMPLE 382, (R)-3-((S)-1-(4-chlorophenyl)ethyl)-6-(4-fluorophenyl)-6-(3-hydroxy-3-methylbutyl)-1,3-oxazinan-2-one], the IC50 is less than 100 nM and the inhibition at 0.1 µM came out at 81.3%.

Turning to `C[C@@H](c1ccc(Cl)cc1)N1CC[C@](CCCNS(C)(=O)=O)(c2ccc(F)cc2)OC1=O` [EXAMPLE 384, N-(3-((R)-3-((S)-1-(4-chlorophenyl)ethyl)-6-(4-fluorophenyl)-2-oxo-1,3-oxazinan-6-yl)propyl)methanesulfonamide], the IC50 is less than 100 nM and the inhibition at 0.1 µM was determined as 89.2%.

Turning to `NC(=O)c1ccc(-c2ccccc2CN2CCC(CCCO)(c3ccc(F)cc3)OC2=O)cc1` (stereo not shown) [EXAMPLE 386, 2′((6-(4-fluorophenyl)-6-(3-hydroxypropyl)-2-oxo-1,3-oxazinan-3-yl)methyl)biphenyl-4-carboxamide], the IC50 was less than 100 nM and the inhibition at 0.1 µM is 52.5%.

With `C[C@@H](c1ccc(C(F)(F)F)cc1)N1CC[C@](CCO)(c2ccc(F)cc2)OC1=O` [EXAMPLE 387, (S)-6-(4-fluorophenyl)-6-(2-hydroxyethyl)-3-((S)-1-(4-(trifluoromethyl)phenyl)ethyl)-1,3-oxazinan-2-one], the IC50 was less than 100 nM and the inhibition at 0.1 µM amounted to 95.8%.

As for `C[C@@H](c1ccc(C(F)(F)F)cc1)N1CC[C@](CCCNS(C)(=O)=O)(c2ccc(F)cc2)OC1=O` [EXAMPLE 389, N-(3-((R)-6-(4-fluorophenyl)-2-oxo-3-((S)-1-(4-(trifluoromethyl)phenyl)ethyl)-1,3-oxazinan-6-yl)propyl)methanesulfonamide], the IC50 was less than 100 nM and the inhibition at 0.1 µM came out at 96.4%.

As to `C[C@@H](c1ccc(C(F)(F)F)cc1)N1CC[C@](CC(C)(C)O)(c2ccc(F)cc2)OC1=O` [EXAMPLE 390, (S)-6-(4-fluorophenyl)-6-(2-hydroxy-2-methylpropyl)-3-((S)-1-(4-(trifluoromethyl)phenyl)ethyl)-1,3-oxazinan-2-one], the IC50 was less than 100 nM and the inhibition at 0.1 µM was found to be 96.3%.

For the molecule `C[C@@H](c1ccc(Br)cc1)N1CC[C@](CCCO)(c2ccccc2)OC1=O` [EXAMPLE 392, (R)-3-((S)-1-(4-bromophenyl)ethyl)-6-(3-hydroxypropyl)-6-phenyl-1,3-oxazinan-2-one], the IC50 is less than 100 nM.

As for `C[C@@H](c1ccc(Br)cc1)N1CC[C@](CCCNS(C)(=O)=O)(c2ccccc2)OC1=O` [EXAMPLE 394, N-(3-((R)-3-((S)-1-(4-bromophenyl)ethyl)-2-oxo-6-phenyl-1,3-oxazinan-6-yl)propyl)methanesulfonamide], the IC50 is less than 100 nM and the inhibition at 0.1 µM amounted to 99.1%.

Take `C[C@@H](c1ccc(Br)cc1)N1CC[C@](CCO)(c2ccccc2)OC1=O` [EXAMPLE 396, (S)-3-((S)-1-(4-bromophenyl)ethyl)-6-(2-hydroxyethyl)-6-phenyl-1,3-oxazinan-2-one]: the IC50 was less than 100 nM.

As to `C[C@@H](c1ccc(Br)cc1)N1CC[C@](CCN2CCOCC2)(c2ccccc2)OC1=O` [EXAMPLE 397, (R)-3-((S)-1-(4-bromophenyl)ethyl)-6-(2-morpholinoethyl)-6-phenyl-1,3-oxazinan-2-one], the IC50 is less than 100 nM and the inhibition at 0.1 µM worked out at 94.7%.

Turning to `CC[C@@H](c1ccc(Br)cc1)N1CC[C@](CCC(N)=O)(c2ccccc2)OC1=O` [EXAMPLE 398, 3-((R)-3-((S)-1-(4-bromophenyl)propyl)-2-oxo-6-phenyl-1,3-oxazinan-6-yl)propanamide], the IC50 is less than 100 nM and the inhibition at 0.1 µM was found to be 97.7%.

Turning to `C[C@@H](c1ccc(C(F)(F)F)cc1)N1CC[C@](CCO)(c2ccccc2)OC1=O` [EXAMPLE 399, (S)-6-(2-hydroxyethyl)-6-phenyl-3-((S)-1-(4-(trifluoromethyl)phenyl)ethyl)-1,3-oxazinan-2-one], the IC50 was less than 100 nM and the inhibition at 0.1 µM was 97.9%.

Turning to `C[C@@H](c1ccc(C(F)(F)F)cc1)N1CC[C@](CC(C)(C)O)(c2ccccc2)OC1=O` [EXAMPLE 400, (S)-6-(2-hydroxy-2-methylpropyl)-6-phenyl-3-((S)-1-(4-(trifluoromethyl)phenyl)ethyl)-1,3-oxazinan-2-one], the IC50 was less than 100 nM and the inhibition at 0.1 µM is 96.8%.

On to `C[C@@H](c1ccc(Cl)cc1)N1CC[C@](CCO)(c2ccccc2)OC1=O` [EXAMPLE 401, (S)-3-((S)-1-(4-chlorophenyl)ethyl)-6-(2-hydroxyethyl)-6-phenyl-1,3-oxazinan-2-one], for which the IC50 is less than 100 nM and the inhibition at 0.1 µM is 98.6%.

Regarding `C[C@@H](c1ccc(Cl)cc1)N1CC[C@](CC(C)(C)O)(c2ccccc2)OC1=O` [EXAMPLE 402, (S)-3-((S)-1-(4-chlorophenyl)ethyl)-6-(2-hydroxy-2-methylpropyl)-6-phenyl-1,3-oxazinan-2-one], the IC50 was less than 100 nM and the inhibition at 0.1 µM was 96.8%.

For the molecule `C[C@@H](c1ccc(Cl)cc1)N1CC[C@](CCCO)(c2ccccc2)OC1=O` [EXAMPLE 403, (R)-3-((S)-1-(4-chlorophenyl)ethyl)-6-(3-hydroxypropyl)-6-phenyl-1,3-oxazinan-2-one], the IC50 was less than 100 nM and the inhibition at 0.1 µM amounted to 99.5%.

Consider `C[C@@H](c1ccc(Cl)cc1)N1CC[C@](CCCNS(C)(=O)=O)(c2ccccc2)OC1=O` [EXAMPLE 404, N-(3-((R)-3-((S)-1-(4-chlorophenyl)ethyl)-2-oxo-6-phenyl-1,3-oxazinan-6-yl)propyl)methanesulfonamide], for which the IC50 was less than 100 nM and the inhibition at 0.1 µM came out at 91.2%.
